Assays:
[1] = rats, intratracheal (IT) administration, cited from earlier work; for Shape of serum profile: 90 minutes experiment
[2] = Pharmacokinetic study: plasma concentration of PTH in dogs after inhalation of dry powder aerosol (RIA); format: in vivo, Beagle dogs; settings: for Shape of serum/plasma profile after inhalation: dry powder aerosol inhaled via endotracheal tube; for Plasma concentration of PTH: PTH 1-84, inhaled dose 14 μg/kg
Method: The powder formulations were compressed in dust containers and generated continuously as dry powder aerosols by a Wright Dust Feed (WDF). The aerosols were generated by scraping off the formulations from the tablets in the dust containers. The mass flow through the WDF was 8.01/min.
The inhaled dose (ID) was determined by measuring the inspiratory tidal volume (ITV) and the PTH concentration during inhalation.
Beagle dogs (n=5, at each formulation) were starved for 16 hours before inhalation and the experiments were performed in the mornings.
Venous blood samples for determination of PTH concentration were taken from the jugular vein into heparinized vacutainer tubes (2 ml). The samples were collected before dosing and at 10, 15, 20, 30, 40, 60, 90, 120, 240 and 360 minutes after start (t=0) of inhalation. The whole blood samples were centrifuged immediately, alternatively kept in ice water for maximum 20 minutes before centrifugation, and the plasma (1 ml) was sampled for PTH analysis. PTH in plasma was analyzed using radioimmunoassay (RIA) kits.

[3] = tested on: ovariectomized osteopenic rats; test: Bone effect: mineral density of the distal femur in ovariectomized osteopenic rats; format: in vivo; settings: inhalation, 4 weeks of administration starting 6 weeks post ovariectomy
Method: The bone effect is measured in ovariectomized osteopenic rats as mineral density as weight/volume of the distal femur after 4 weeks of administration; starting 6 weeks post ovariectomy.

CC[C@H](C)[C@H](NC(=O)[C@H](CCC(=O)O)NC(=O)[C@H](CO)NC(=O)[C@@H](NC(=O)[C@@H](N)CO)C(C)C)C(=O)N[C@@H](CCC(N)=O)C(=O)N[C@@H](CC(C)C)C(=O)N[C@@H](CCSC)C(=O)N[C@@H](Cc1cnc[nH]1)C(=O)N[C@@H](CC(N)=O)C(=O)N[C@@H](CC(C)C)C(=O)NCC(=O)N[C@@H](CCCCN)C(=O)N[C@@H](Cc1cnc[nH]1)C(=O)N[C@@H](CC(C)C)C(=O)N[C@@H](CC(N)=O)C(=O)N[C@@H](CO)C(=O)N[C@@H](CCSC)C(=O)N[C@@H](CCC(=O)O)C(=O)N[C@@H](CCCN=C(N)N)C(=O)N[C@H](C(=O)N[C@@H](CCC(=O)O)C(=O)N[C@@H](Cc1c[nH]c2ccccc12)C(=O)N[C@@H](CC(C)C)C(=O)N[C@@H](CCCN=C(N)N)C(=O)N[C@@H](CCCCN)C(=O)N[C@@H](CCCCN)C(=O)N[C@@H](CC(C)C)C(=O)N[C@@H](CCC(N)=O)C(=O)N[C@@H](CC(=O)O)C(=O)N[C@H](C(=O)N[C@@H](Cc1cnc[nH]1)C(=O)N[C@@H](CC(N)=O)C(=O)N[C@@H](Cc1ccccc1)C(=O)O)C(C)C)C(C)C [PTH 1-34]
Shape of serum profile [1]: activity diminishing rapidly thereafter
Time of serum peak [1]: 15 min
level at time molar at 10 min ([2]; beagle, dog, plasma, inhaled or intranasal, 4 ug/kg, PTH 1-34, inhaled dose 4.0 μg/kg, 10 min after start of inhalation): 0.0304 nM
level at time molar at 0.25 h ([2]; beagle, dog, plasma, inhaled or intranasal, 4 ug/kg, PTH 1-34, inhaled dose 4.0 μg/kg, 15 min after start of inhalation): 0.0474 nM
level at time molar at 20 min ([2]; beagle, dog, plasma, inhaled or intranasal, 4 ug/kg, PTH 1-34, inhaled dose 4.0 μg/kg, 20 min after start of inhalation): 0.0496 nM
level at time molar at 0.5 h ([2]; beagle, dog, plasma, inhaled or intranasal, 4 ug/kg, PTH 1-34, inhaled dose 4.0 μg/kg, 30 min after start of inhalation): 0.0446 nM
level at time molar at 40 min ([2]; beagle, dog, plasma, inhaled or intranasal, 4 ug/kg, PTH 1-34, inhaled dose 4.0 μg/kg, 40 min after start of inhalation): 0.0362 nM
level at time molar at 1 h ([2]; beagle, dog, plasma, inhaled or intranasal, 4 ug/kg, PTH 1-34, inhaled dose 4.0 μg/kg, 60 min after start of inhalation): 0.026 nM
level at time molar at 1.5 h ([2]; beagle, dog, plasma, inhaled or intranasal, 4 ug/kg, PTH 1-34, inhaled dose 4.0 μg/kg, 90 min after start of inhalation): 0.017 nM
level at time molar at 2 h ([2]; beagle, dog, plasma, inhaled or intranasal, 4 ug/kg, PTH 1-34, inhaled dose 4.0 μg/kg, 120 min after start of inhalation): 0.0126 nM
level at time molar at 4 h ([2]; beagle, dog, plasma, inhaled or intranasal, 4 ug/kg, PTH 1-34, inhaled dose 4.0 μg/kg, 240 min after start of inhalation): 0.006 nM
level at time molar at 6 h ([2]; beagle, dog, plasma, inhaled or intranasal, 4 ug/kg, PTH 1-34, inhaled dose 4.0 μg/kg, 360 min after start of inhalation): 0.0076 nM
level at time molar at 0 h ([2]; beagle, dog, plasma, inhaled or intranasal, 4 ug/kg, PTH 1-34, inhaled dose 4.0 μg/kg, time 0 min (before dosing)): 0.008 nM
Shape of serum/plasma profile after inhalation [2]: pulsatile serum profile

PTH 1-84: Human parathyroid hormone, 84 amino acid protein (SEQ ID NO: 1); given as micronised dry powder with lactose and citrate
Shape of serum profile [1]: plateau which did not diminish significantly during the 90 minutes
Plasma concentration of PTH ([2]; 10 min after start of inhalation): 0.0083 nM
Plasma concentration of PTH ([2]; 15 min after start of inhalation): 0.0114 nM
Plasma concentration of PTH ([2]; 20 min after start of inhalation): 0.0116 nM
Plasma concentration of PTH ([2]; 30 min after start of inhalation): 0.0096 nM
Plasma concentration of PTH ([2]; 40 min after start of inhalation): 0.0079 nM
Plasma concentration of PTH ([2]; 60 min after start of inhalation): 0.0058 nM
Plasma concentration of PTH ([2]; 90 min after start of inhalation): 0.0041 nM
Plasma concentration of PTH ([2]; 120 min after start of inhalation): 0.003 nM
Plasma concentration of PTH ([2]; 360 min after start of inhalation): 0.0026 nM
Plasma concentration of PTH ([2]; time 0 min (before dosing)): 0.0034 nM
Shape of serum/plasma profile after inhalation [2]: pulsatile serum profile
Shape of serum/plasma profile after inhalation ([2]; listed as full-length PTH): pulsative plasma profile
Effect on femur bone formation (mineral density of the distal femur) [3]: significant effect on femur bone formation
